{
  "source": "paper PMC4845012",
  "about": "“Unique behavior of Trypanosoma cruzi mevalonate kinase: A conserved glycosomal enzyme involved in host cell invasion and signaling” (Scientific Reports, 2016)",
  "key": {"rTcMVK": {"target": "T1, rTcMVK (Trypanosoma cruzi, UniProt A0A165UDJ0)", "T1 construct": "gene MVK; N-terminal His6 tag (pET-28a, BamHI/HindIII), E. coli BL21; native 34 kDa; active dimer fraction from gel filtration", "T1 sequence (A0A165UDJ0 43-364 limits assumed)": "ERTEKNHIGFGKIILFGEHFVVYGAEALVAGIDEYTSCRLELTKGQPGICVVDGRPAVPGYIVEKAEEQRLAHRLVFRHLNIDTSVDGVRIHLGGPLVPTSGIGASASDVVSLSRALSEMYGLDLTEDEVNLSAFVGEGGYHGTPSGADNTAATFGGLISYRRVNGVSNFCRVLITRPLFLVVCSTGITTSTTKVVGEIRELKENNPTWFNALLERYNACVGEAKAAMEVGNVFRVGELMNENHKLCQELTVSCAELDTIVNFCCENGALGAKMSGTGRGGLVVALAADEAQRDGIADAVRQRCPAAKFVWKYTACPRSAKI", "test": "coupled pyruvate kinase / lactate dehydrogenase assay, NADH at […] nm", "type": "biochemical", "conditions": "MgCl2 […], glycine pH […] °C, dimer"}, "[1]": {"target": "recombinant Trypanosoma cruzi mevalonate kinase (rTcMVK) (Trypanosoma cruzi (G strain))", "test": "SEC; Superdex 200 High Load 16/60 prep-grade, glycine buffer pH 9.0 with 0.15 M NaCl, after Ni-NTA; separates the oligomerization states of rTcMVK"}},
  "note": "“And” between values parts separate entries of the source, which are not always exact repeats. Equal values may be shown once.",
  "data": [
    {"molecule": "CC(O)(CCO)CC(=O)O", "note": "(racemic) [(RS)-mevalonic acid]", "values": [
      {"measurement": "coupled pyruvate kinase / lactate dehydrogenase assay, NADH at 340 nm", "setting": "rTcMVK; ATP […], racemic mevalonate […] from hydrolysed lactone", "value": "In vitro assays using synthetic mevalonic acid confirmed enzymatic activity of recombinant TcMVK"}
    ]},
    {"molecule": "Nc1ncnc2c1ncn2[C@@H]1O[C@H](COP(=O)(O)OP(=O)(O)OP(=O)(O)O)[C@@H](O)[C@H]1O", "note": "[ATP]", "values": [
      {"measurement": "coupled pyruvate kinase / lactate dehydrogenase assay, NADH at 340 nm", "setting": "rTcMVK; mevalonate […], blank without ATP", "value": "Blank assays were performed in the absence of ATP."}
    ]},
    {"molecule": "recombinant Trypanosoma cruzi mevalonate kinase (rTcMVK) (enzyme)", "values": [
      {"measurement": "stoichiometry N", "setting": "[1]", "value": "4 and 2"}
    ]}
  ]
}
